This series relates to adults suffering from diabetes type 2. Briefly: Four-week substitution trial in adults with diabetes type 2 controlled by metformin alone.

“Also recorded” adds a separate entry of the source.

`CN(C)C(=N)N=C(N)N` [metformin, Metformin]: the “fasting plasma glucose (FPG) control” value (before the trial, on regular metformin 500 mg twice daily to 850 mg three times daily, five adults) is reported as “below 8 mmol/l”. For the same molecule, the “side-effects of taking metformin” value (regular metformin, metallic taste three of five, abdominal discomfort all five) is “metallic taste in the mouth occasionally; also recorded: occasional abdominal discomfort”.

Values taken from patent US20060159776A1, “Compositions comprising components coated with a liquid impermeable but gas permeable layer, use thereof for treating cutaneous and other exocrine gland diseases” (priority 2003, published 2006).
